The supplement of paper PMC11061612

What was measured:
Experiment in all cases: Bliss excess, mean over the matrix (fraction); higher = more synergy
[1] = test system: Caov-4 (Ovarian Carcinoma)
In short: (§1)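 Cell lines grown in DMEM/F12 or RPMI with 10% FBS were plated in 1536-well plates and held 24 hours at 37°C, 5% CO2 before 72 hours of exposure to two-drug dose matrices, with DMSO typically at 0.2%. CellTiter-Glo 2.0 luminescence gave viability, which was converted to inhibition. Vehicle wells were set to 0 and blank wells to 1. Combination Emax is the second-highest inhibition in the matrix, and Bliss excess is the observed combination effect minus the expected EA + EB − EA·EB, where EA and EB are the single-agent effects.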

[2] = test system: EoL-1-cell (Acute Myeloid Leukemia)
In short: as §1

[3] = test system: PANC-04-03 (Pancreatic Carcinoma)
In short: as §1

[4] = test system: OVCAR-4 (Ovarian Carcinoma)
In short: as §1

[5] = test system: LU-65 (Non-Small Cell Lung Carcinoma)
In short: as §1

[6] = test system: AMO-1 (Plasma Cell Myeloma)
In short: as §1

[7] = test system: NUGC-3 (Gastric Carcinoma)
In short: as §1

[8] = test system: OSC-20 (Oral Cavity Carcinoma)
In short: as §1

[9] = test system: C-4-I (Cervical Carcinoma)
In short: as §1

[10] = test system: Hs-766T (Pancreatic Carcinoma)
In short: as §1

[11] = test system: SCC-15 (Oral Cavity Carcinoma)
In short: as §1

[12] = test system: D-263MG (Glioblastoma)
In short: as §1

[13] = test system: NCI-H1915 (Non-Small Cell Lung Carcinoma)
In short: as §1

[14] = test system: ACHN (Kidney Carcinoma)
In short: as §1

[15] = test system: NEC8 (Other Solid Carcinomas)
In short: as §1

[16] = test system: HSC-4 (Oral Cavity Carcinoma)
In short: as §1

[17] = test system: MLMA (Other Blood Carcinomas)
In short: as §1

[18] = test system: VA-ES-BJ (Other Solid Carcinomas)
In short: as §1

[19] = test system: YH-13 (Glioblastoma)
In short: as §1

[20] = test system: TE-1 (Esophageal Squamous Cell Carcinoma)
In short: as §1

Compound	Bliss excess [1]	Bliss excess [2]	Bliss excess [3]	Bliss excess [4]	Bliss excess [5]	Bliss excess [6]	Bliss excess [7]	Bliss excess [8]	Bliss excess [9]	Bliss excess [10]	Bliss excess [11]	Bliss excess [12]	Bliss excess [13]	Bliss excess [14]	Bliss excess [15]	Bliss excess [16]	Bliss excess [17]	Bliss excess [18]	Bliss excess [19]	Bliss excess [20]
CC1(C)CCC(CN2CCN(c3ccc(C(=O)NS(=O)(=O)c4ccc(NCC5CCOCC5)c([N+](=O)[O-])c4)c(Oc4cnc5[nH]ccc5c4)c3)CC2)=C(c2ccc(Cl)cc2)C1 [Venetoclax] + C[C@@H](Nc1cc(F)cc(F)c1)c1cc(C(=O)N(C)C)cc2c(=O)cc(N3CCOCC3)oc12 [AZD8186] (first compound max 1 µM, 7x7, partner max 3 µM)	-0.0109	0.103	-0.0374	-0.0186	-0.0235	-0.0065	-0.0192	-0.0516	0.0078	-0.0487	-0.0348	-0.0044	-0.0264	-0.0208	-0.0197	-0.0369	-0.0327	-0.0245	-0.0336	0.0042
Cc1c2c(nn1C)CSCc1cc(n(C)n1)CSc1cc(c3ccccc3c1)OCCCc1c(C(=O)O)n(C)c3c-2c(Cl)ccc13 [AZD5991] + CCN(CCO)CCCOc1ccc2c(Nc3cc(CC(=O)Nc4cccc(F)c4)[nH]n3)ncnc2c1 [AZD2811] (first compound max 1 µM, 7x7, partner max 1 µM)	0.0337	0.0044	-0.0143	0.0989	-0.0258	0.0145	0.0454	0.0042	0.0332	-0.0019	-0.0061	0.122	0.0197	0.0541	0.0348	-0.0283	0.028	0.0703	0.0141	0.0705
Cc1c2c(nn1C)CSCc1cc(n(C)n1)CSc1cc(c3ccccc3c1)OCCCc1c(C(=O)O)n(C)c3c-2c(Cl)ccc13 [AZD5991] + Cn1cnc2c(F)c(Nc3ccc(Br)cc3Cl)c(C(=O)NOCCO)cc21 [Selumetinib] (first compound max 1 µM, 7x7, partner max 3 µM)	0.0604	0.0751	0.0201	0.0473	0.03	0.0129	0.0106	0.0146	0.132	-0.0859	0.0241	-0.0318	0.0375	0.0314	0.0374	-0.0175	0.0463	0.0207	-0.0347	0.019
COc1cccc(OCCCN)c1-c1cc(Nc2cnc(C#N)cn2)n[nH]1 [Prexasertib] + CN(C)CCCOc1ccc(-c2ccc3ncc4c(c3c2)n(C2CCOCC2)c(=O)n4C)cn1 [AZD0156] (first compound max 1 µM, 7x7, partner max 1 µM)	0.0056	-0.0145	-0.0328	0.0086	-0.023	-0.0341	0.0083	-0.0111	-0.0273	-0.0062	-0.0333	0.0273	-0.0086	-0.0318	-0.009	-0.0079	-0.0349	-0.0395	-0.0203	-0.0356
COc1nnc2ccc(N3CCC(c4ccc(OCCN5CCN(C)C(=O)[C@H]5C)cc4)CC3)nn12 [AZD5153] + CC1(C)CCC(CN2CCN(c3ccc(C(=O)NS(=O)(=O)c4ccc(NCC5CCOCC5)c([N+](=O)[O-])c4)c(Oc4cnc5[nH]ccc5c4)c3)CC2)=C(c2ccc(Cl)cc2)C1 [Venetoclax] (first compound max 1 µM, 7x7, partner max 1 µM)	0.0179	-0.0183	-0.0341	-0.0104	-0.072	-0.0483	-0.0746	-0.0554	-0.05	-0.0487	-0.0681	-0.0613	-0.0659	-0.0499	-0.0661	-0.0705	-0.0084	-0.0486	-0.0441	-0.0383
Cn1cnc2c(F)c(Nc3ccc(Br)cc3Cl)c(C(=O)NOCCO)cc21 [Selumetinib] + C=CCn1c(=O)c2cnc(Nc3ccc(N4CCN(C)CC4)cc3)nc2n1-c1cccc(C(C)(C)O)n1 [AZD1775] (first compound max 10 µM, partner max 1 µM)	-0.0097	-0.053	-0.0351	-0.0698	0.0065	-0.0108	-0.0757	-0.019	0.0083	-0.0559	-0.075	-0.0567	-0.0462	-0.0527	0.0185	-0.041	-0.0257	-0.112	-0.0489	-0.0277
Cc1c2c(nn1C)CSCc1cc(n(C)n1)CSc1cc(c3ccccc3c1)OCCCc1c(C(=O)O)n(C)c3c-2c(Cl)ccc13 [AZD5991] + C[C@@H]1COCCN1C2=NC(=NC(=C2)C3(CC3)[S@](=N)(=O)C)C4=C5C=CNC5=NC=C4 [AZD6738] (first compound max 1 µM, 7x7, partner max 10 µM)	-0.0205	0.0036	0.0027	-0.0472	-0.0405	0.0055	0.0119	0.0592	0.0416	0.0201	0.0506	-0.0023	0.0212	-0.0008	0.1	-0.0403	-0.0392	0.0023	0.0218	0.0125
